# From publication PMC12267471, “Discovery of natural scaffolds as HER2 inhibitors for breast cancer: virtual screening, molecular dynamics, and biological characterization with selectivity profiling” (Scientific Reports, 2025)
# What was measured:
# BT-474 cells = test: Cell cycle analysis by PI flow cytometry, BT-474; assay type: cell-based, human; details: BT-474, 3.5 µM, 24 h (control 59%)
# Experimental: To evaluate liquiritin’s impact on cell cycle progression, a propidium iodide (PI)-based flow cytometry assay was performed using the Cell Cycle Analysis Kit (ab139418, Abcam) following the manufacturer’s protocol. BT-474 and SKBR3 cells were seeded into 100 mm culture plates at a density of 1 × 10^6 cells/plate in RPMI 1640 medium supplemented with 10% FBS and incubated overnight. To synchronize cells in the G1 phase, cultures were rinsed twice with PBS and maintained in serum-reduced medium (0.5% FBS) for 48 h. Synchronized cells were subsequently treated with liquiritin at concentrations equivalent to its respective IC50 values (determined via prior proliferation assays) in serum-free media for 24 h.
# Post-treatment, cells were detached using trypsin, washed with ice-cold PBS, and fixed in 66% ethanol at 4 °C for 2 h. Fixed cells were rehydrated in PBS and stained with a freshly prepared PI solution (1 mg/mL PI, 5,500 U/mL RNase A in PBS) for 30 min at 4 °C in the dark. DNA content was quantified using a BD FACS Calibur flow cytometer (BD Biosciences, San Jose, CA), with 10,000 events analyzed per sample. Cell cycle phase distributions (G0/G1, S, G2/M) were calculated from histogram data generated by Cell Quest software (BD Biosciences). All assays were performed in triplicate to ensure reproducibility.
# KDR (VEGFR2) = KDR (VEGFR2) (Homo sapiens, UniProt P35968); test: SelectScreen Z'-LYTE kinase profiling; assay type: biochemical
# Experimental: (§1) Liquiritin was screened at 0.1 µM dose against a panel of 15 human kinases using SelectScreen® kinase profiling services offered by ThermoFisher Scientific™ (Madison, WI, USA). The percent inhibition of Liquiritin was assessed against each kinase in an automated high-throughput screening system using the time-resolved fluorescence resonance energy transfer Z´-LYTE™ kinase assay. Technology overview, protocols, and assay conditions are accessible at https://x.gd/UgBBB.
# RET = RET (Homo sapiens, UniProt P07949); test: SelectScreen Z'-LYTE kinase profiling; assay type: biochemical
# Experimental: as §1
# ROS1 = ROS1 (Homo sapiens, UniProt P08922); test: SelectScreen Z'-LYTE kinase profiling; assay type: biochemical
# Experimental: as §1
# MET (cMet) = MET (cMet) (Homo sapiens, UniProt P08581); test: SelectScreen Z'-LYTE kinase profiling; assay type: biochemical
# Experimental: as §1
# ERBB4 (HER4) = ERBB4 (HER4) (Homo sapiens, UniProt Q15303); test: SelectScreen Z'-LYTE kinase profiling; assay type: biochemical
# Sequence of ERBB4 (HER4) (Q15303 26-1308): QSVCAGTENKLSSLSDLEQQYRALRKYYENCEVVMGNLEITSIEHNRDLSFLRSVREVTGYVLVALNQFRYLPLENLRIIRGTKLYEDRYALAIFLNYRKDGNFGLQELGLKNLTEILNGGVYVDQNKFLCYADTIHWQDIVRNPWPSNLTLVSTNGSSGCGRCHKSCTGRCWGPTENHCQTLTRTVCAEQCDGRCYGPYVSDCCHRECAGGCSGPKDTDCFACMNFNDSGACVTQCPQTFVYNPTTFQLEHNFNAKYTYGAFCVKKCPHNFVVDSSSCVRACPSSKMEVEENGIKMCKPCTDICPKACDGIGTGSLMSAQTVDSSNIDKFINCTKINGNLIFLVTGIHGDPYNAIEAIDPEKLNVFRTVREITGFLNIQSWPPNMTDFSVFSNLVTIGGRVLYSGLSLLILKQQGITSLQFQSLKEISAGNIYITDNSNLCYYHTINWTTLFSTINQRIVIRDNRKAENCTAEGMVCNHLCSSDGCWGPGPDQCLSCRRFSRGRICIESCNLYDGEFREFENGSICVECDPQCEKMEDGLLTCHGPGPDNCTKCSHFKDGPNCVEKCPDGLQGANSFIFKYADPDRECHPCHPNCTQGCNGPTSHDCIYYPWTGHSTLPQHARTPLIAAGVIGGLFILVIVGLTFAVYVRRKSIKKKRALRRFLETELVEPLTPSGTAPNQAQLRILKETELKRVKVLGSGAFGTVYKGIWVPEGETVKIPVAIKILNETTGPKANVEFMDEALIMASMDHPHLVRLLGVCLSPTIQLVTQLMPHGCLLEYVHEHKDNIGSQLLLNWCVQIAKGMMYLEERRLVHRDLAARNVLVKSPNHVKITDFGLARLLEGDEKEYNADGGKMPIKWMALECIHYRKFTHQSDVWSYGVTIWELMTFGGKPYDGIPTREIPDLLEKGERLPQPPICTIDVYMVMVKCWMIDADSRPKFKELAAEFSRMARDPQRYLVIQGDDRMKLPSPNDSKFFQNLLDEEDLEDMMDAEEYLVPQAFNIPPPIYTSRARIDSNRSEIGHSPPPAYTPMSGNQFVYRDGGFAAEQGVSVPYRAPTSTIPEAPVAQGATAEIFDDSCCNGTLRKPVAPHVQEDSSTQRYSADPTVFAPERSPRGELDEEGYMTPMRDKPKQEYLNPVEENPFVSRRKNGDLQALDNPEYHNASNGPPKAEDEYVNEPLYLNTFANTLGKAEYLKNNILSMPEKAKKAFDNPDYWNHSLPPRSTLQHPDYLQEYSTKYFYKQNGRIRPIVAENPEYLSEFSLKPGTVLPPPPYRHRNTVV
# Experimental: as §1
# IGF1R = IGF1R (Homo sapiens, UniProt P08069); test: SelectScreen Z'-LYTE kinase profiling; assay type: biochemical
# Experimental: as §1
# FLT1 (VEGFR1) = FLT1 (VEGFR1) (Homo sapiens, UniProt P17948); test: SelectScreen Z'-LYTE kinase profiling; assay type: biochemical
# Experimental: as §1
# ALK = ALK (Homo sapiens, UniProt Q9UM73); test: SelectScreen Z'-LYTE kinase profiling; assay type: biochemical
# Experimental: as §1
# EGFR (ErbB1) = EGFR (ErbB1) (Homo sapiens, UniProt P00533); test: SelectScreen Z'-LYTE kinase profiling; assay type: biochemical
# Sequence of EGFR (ErbB1) (P00533 25-1210): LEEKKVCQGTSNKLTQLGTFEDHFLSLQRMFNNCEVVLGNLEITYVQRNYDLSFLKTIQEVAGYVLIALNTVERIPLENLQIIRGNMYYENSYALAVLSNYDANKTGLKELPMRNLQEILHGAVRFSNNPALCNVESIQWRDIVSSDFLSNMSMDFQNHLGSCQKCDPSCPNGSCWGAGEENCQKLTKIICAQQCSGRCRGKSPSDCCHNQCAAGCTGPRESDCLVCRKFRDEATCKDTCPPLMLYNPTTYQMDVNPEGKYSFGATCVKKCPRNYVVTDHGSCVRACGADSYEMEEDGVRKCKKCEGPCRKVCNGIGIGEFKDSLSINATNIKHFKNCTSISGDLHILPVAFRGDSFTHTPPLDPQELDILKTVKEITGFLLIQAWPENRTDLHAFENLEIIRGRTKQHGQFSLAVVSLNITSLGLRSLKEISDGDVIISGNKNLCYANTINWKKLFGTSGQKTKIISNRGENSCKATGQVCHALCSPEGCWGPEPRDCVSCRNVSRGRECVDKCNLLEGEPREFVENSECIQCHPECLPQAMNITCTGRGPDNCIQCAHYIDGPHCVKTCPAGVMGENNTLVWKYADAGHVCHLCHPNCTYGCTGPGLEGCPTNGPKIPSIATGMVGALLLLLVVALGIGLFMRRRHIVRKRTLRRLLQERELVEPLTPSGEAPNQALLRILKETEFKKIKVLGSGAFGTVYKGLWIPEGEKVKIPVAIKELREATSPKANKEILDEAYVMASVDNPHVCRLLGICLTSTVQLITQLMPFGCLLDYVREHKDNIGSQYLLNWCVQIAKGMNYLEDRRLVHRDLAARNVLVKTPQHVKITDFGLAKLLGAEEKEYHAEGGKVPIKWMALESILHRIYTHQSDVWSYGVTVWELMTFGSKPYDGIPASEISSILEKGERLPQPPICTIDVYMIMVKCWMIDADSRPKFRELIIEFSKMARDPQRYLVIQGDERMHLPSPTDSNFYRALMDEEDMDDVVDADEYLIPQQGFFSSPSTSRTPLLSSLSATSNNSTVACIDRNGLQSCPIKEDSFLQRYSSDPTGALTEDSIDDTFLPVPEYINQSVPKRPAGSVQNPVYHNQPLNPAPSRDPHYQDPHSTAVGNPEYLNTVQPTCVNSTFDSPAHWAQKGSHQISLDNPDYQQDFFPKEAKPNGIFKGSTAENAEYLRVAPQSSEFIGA
# Experimental: as §1
# TYRO3 (RSE) = TYRO3 (RSE) (Homo sapiens, UniProt Q06418); test: SelectScreen Z'-LYTE kinase profiling; assay type: biochemical
# Experimental: as §1
# FGFR1 = FGFR1 (Homo sapiens, UniProt P11362); test: SelectScreen Z'-LYTE kinase profiling; assay type: biochemical
# Sequence of FGFR1 (P11362 22-822): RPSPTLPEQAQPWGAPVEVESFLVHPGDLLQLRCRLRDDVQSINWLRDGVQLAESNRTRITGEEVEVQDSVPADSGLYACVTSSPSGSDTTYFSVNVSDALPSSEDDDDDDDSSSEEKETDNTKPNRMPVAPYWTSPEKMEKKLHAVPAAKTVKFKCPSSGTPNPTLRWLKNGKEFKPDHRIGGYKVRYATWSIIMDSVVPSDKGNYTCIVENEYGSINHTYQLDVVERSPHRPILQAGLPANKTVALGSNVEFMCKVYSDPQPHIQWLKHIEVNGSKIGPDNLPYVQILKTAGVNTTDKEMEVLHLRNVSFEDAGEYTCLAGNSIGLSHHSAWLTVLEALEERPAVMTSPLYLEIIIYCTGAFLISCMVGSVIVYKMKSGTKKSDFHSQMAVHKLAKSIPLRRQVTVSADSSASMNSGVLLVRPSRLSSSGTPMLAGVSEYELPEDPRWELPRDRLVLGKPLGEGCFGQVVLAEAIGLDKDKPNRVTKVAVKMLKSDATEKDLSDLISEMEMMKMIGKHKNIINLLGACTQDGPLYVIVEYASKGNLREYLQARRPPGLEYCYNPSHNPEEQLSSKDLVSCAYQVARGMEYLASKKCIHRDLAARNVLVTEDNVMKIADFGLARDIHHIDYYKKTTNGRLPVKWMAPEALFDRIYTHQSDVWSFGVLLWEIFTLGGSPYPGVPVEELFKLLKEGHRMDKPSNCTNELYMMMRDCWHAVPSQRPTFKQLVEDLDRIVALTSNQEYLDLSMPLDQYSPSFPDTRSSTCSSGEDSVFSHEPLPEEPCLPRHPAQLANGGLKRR
# Experimental: as §1
# PDGFRB (PDGFR beta) = PDGFRB (PDGFR beta) (Homo sapiens, UniProt P09619); test: SelectScreen Z'-LYTE kinase profiling; assay type: biochemical
# Experimental: as §1
# KIT = KIT (Homo sapiens, UniProt P10721); test: SelectScreen Z'-LYTE kinase profiling; assay type: biochemical
# Experimental: as §1
# ERBB2 (HER2) = ERBB2 (HER2) (Homo sapiens, UniProt P04626); test: SelectScreen Z'-LYTE kinase profiling; assay type: biochemical
# Sequence of ERBB2 (HER2) (P04626 23-1255): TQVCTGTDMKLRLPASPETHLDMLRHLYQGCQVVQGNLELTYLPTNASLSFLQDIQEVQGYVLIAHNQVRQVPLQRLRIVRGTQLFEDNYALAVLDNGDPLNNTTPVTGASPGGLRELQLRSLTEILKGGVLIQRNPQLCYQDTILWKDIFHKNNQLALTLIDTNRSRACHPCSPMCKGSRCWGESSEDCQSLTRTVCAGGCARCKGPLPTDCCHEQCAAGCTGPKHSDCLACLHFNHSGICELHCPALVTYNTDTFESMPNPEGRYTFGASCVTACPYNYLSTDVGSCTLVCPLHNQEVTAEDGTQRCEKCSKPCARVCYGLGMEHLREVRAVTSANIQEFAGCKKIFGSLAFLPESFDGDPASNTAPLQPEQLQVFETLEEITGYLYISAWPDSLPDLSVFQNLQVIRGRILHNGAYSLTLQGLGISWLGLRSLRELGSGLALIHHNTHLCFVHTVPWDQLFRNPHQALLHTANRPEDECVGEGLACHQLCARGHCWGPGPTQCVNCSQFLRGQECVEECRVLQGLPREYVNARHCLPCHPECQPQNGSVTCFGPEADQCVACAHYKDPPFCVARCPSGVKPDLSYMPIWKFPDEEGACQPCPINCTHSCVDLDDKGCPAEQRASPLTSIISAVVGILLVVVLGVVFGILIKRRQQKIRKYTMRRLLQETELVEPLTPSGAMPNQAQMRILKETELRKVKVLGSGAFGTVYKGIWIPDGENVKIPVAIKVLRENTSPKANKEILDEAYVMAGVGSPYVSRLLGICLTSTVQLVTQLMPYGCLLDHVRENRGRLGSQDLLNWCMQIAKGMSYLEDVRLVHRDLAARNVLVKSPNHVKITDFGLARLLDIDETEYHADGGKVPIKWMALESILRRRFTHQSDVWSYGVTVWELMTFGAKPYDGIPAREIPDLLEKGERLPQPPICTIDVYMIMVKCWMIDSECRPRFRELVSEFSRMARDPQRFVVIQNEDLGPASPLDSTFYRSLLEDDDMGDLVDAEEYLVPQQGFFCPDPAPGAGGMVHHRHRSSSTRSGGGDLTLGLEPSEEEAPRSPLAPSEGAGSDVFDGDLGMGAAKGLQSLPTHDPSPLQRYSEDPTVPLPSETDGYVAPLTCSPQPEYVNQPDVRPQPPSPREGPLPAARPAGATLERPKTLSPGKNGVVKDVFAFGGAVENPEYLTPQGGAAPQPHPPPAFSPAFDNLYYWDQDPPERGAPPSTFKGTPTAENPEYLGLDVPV
# Experimental: as §1
# MST1R (RON) = MST1R (RON) (Homo sapiens, UniProt Q04912); test: SelectScreen Z'-LYTE kinase profiling; assay type: biochemical
# Experimental: as §1
structure (smiles),measurement,setting,value
O=C1C[C@@H](c2ccc(O[C@@H]3O[C@H](CO)[C@@H](O)[C@H](O)[C@H]3O)cc2)Oc2cc(O)ccc21 [Liquiritin],proportion of cells in G1 phase,BT-474 cells,~88%
same,inhibition at 0.1 µM,KDR (VEGFR2),4%
same,inhibition at 0.1 µM,RET,2%
same,inhibition at 0.1 µM,ROS1,8%
same,inhibition at 0.1 µM,MET (cMet),5%
same,inhibition at 0.1 µM,ERBB4 (HER4),> 80%
same,Mean inhibition (%),ERBB4 (HER4); 0.1 µM,88%
same,inhibition at 0.1 µM,IGF1R,4%
same,inhibition at 0.1 µM,FLT1 (VEGFR1),2%
same,inhibition at 0.1 µM,ALK,7%
same,inhibition at 0.1 µM,EGFR (ErbB1),> 80%
same,Mean inhibition (%),EGFR (ErbB1); 0.1 µM,99%
same,inhibition at 0.1 µM,TYRO3 (RSE),5%
same,inhibition at 0.1 µM,FGFR1,7%
same,inhibition at 0.1 µM,PDGFRB (PDGFR beta),4%
same,inhibition at 0.1 µM,KIT,0%
same,inhibition at 0.1 µM,ERBB2 (HER2),> 80%
same,Mean inhibition (%),ERBB2 (HER2); 0.1 µM,92%
same,inhibition at 0.1 µM,MST1R (RON),7%
